Results taken from PubChem BioAssay AID687022 (Broad Institute, 2013).
Active and inactive are the calls of the source.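 Rule for the calls: active = Fitted curve of melting temperature shift crosses the 1.0 threshold at or below the sample's highest valid tested concentration; inconclusive = Flat fit with activity 30 to 70, or invalid fit; inactive = Opposite direction, flat within 30, or no crossing.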

Target: Fibroblast growth factor 22 (Homo sapiens) (UniProt Q9HCT0)
Test: binders of human FGF22 protein, dose response, FGF22 synaptogenesis inhibitor project, biophysical, thermal shift, cherry-pick (AID 687022)
Conditions: recombinant FGF22 thermal shift, SYPRO orange melting

Chain of Fibroblast growth factor 22 (Homo sapiens) (Q9HCT0 whole entry, looked up): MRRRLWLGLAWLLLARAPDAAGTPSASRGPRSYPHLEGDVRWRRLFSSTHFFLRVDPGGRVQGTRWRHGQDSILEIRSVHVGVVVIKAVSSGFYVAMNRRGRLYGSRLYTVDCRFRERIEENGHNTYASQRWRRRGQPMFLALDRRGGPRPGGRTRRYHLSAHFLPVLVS

Structure (SMILES) | AbsAC1 (concentration giving Tm-shift threshold 1.0)
Cc1[nH]c2ccccc2c1/C=N/NC(=O)c1cccc(F)c1 | 9.79 µM
O=c1c(O)c(-c2cc(O)c(O)c(O)c2)oc2cc(O)cc(O)c12 | 4.37 µM
COc1ccc(C)cc1NS(=O)(=O)c1ccc(NS(=O)(=O)c2ccc(NC(C)=O)cc2)cc1 | 3.7 µM
O=C(NN1C(=O)CSC1=S)C(=O)NN1C(=O)CSC1=S | 5.24 µM
Cc1nc2c(C)cccc2cc1C(=O)N/N=C/c1ccc(O)cc1 | 14.8 µM
O=C(CC1SC(=O)NC1=O)Nc1ccc(Cl)cc1 (configuration not stated) | 3.11 µM
Oc1ccc(-c2nc3ccccc3s2)c(O)c1 | 5.15 µM
CC(C)c1ccc(-n2c(O)c(/C=N/NC(=O)c3ccccc3O)c(=O)[nH]c2=S)cc1 | 3.91 µM
CCN1C/C(=C/c2cccs2)c2nc3ccccc3c(C(=O)O)c2C1 | 3.02 µM
O=C(N/N=C/c1ccncc1)c1cccc(N/N=C/c2ccncc2)c1 | 8.51 µM
O=C(Nc1ccc(O)cc1)c1cccc(Oc2ccc([N+](=O)[O-])cc2)c1 | 4.32 µM
COc1ccc(NC(=O)CN(C)C(=O)c2cn(-c3ccccc3)nc2-c2cccnc2)cc1 | > 38 µM (inactive)
COc1ccc2c(/C=N/NS(=O)(=O)c3ccc(C)cc3)c[nH]c2c1 | 9.87 µM
O=C(C[C@H]1CC[C@@H]2[C@H](COC[C@H](O)CN2S(=O)(=O)c2cccc(F)c2)O1)Nc1ccccc1 | 3.48 µM
CO[C@H](CN(C)S(=O)(=O)c1cccc(Cl)c1)[C@H](C)CN([C@H](C)CO)S(=O)(=O)c1cccc(Cl)c1 | 14.1 µM
O=C(N/N=C/c1ccsc1)c1c[nH]c2ccccc12 | 17.9 µM
O=C(CCc1c[nH]c2ccccc12)Nc1ccc(Nc2cccnc2)cc1 | 4.36 µM
COC(=O)C1=C(CS(=O)(=O)c2cc(OC)ccc2OC)NC(=O)NC1c1ccc(O)c(OC)c1 (configuration not stated) | 3.09 µM
O=C(NNC(=O)C1CCN(S(=O)(=O)c2ccccc2C(F)(F)F)CC1)c1ccccc1O | 10.4 µM
Cc1ccc(NC(=O)O/N=C/c2cccc([N+](=O)[O-])c2)cc1 | 17.8 µM
O=C(Nc1ccc(S(=O)(=O)N2CCCC2)cc1)c1cccs1 | 9.33 µM
CC1(C(=O)NS(=O)(=O)Cc2cccc(Cl)c2)CCN1C(=O)C1(c2ccc(Cl)cc2)CCC1 (configuration not stated) | > 10 µM (inactive)
O=C(Nc1ccccc1)N1C[C@H]2[C@@H](c3ccccc31)[C@@H](CO)N2C(=O)c1ccncc1 | 41.2 µM
CCOc1ccc(NS(=O)(=O)c2ccc(C(=O)NNC(=O)c3ccccc3O)cc2)cc1 | > 38 µM (inactive)
Cc1cc(C)n(-c2ccc(C(=O)Nc3ccc(S(=O)(=O)N(C)C)cc3)cc2)n1 | 9.32 µM
O=C(N/N=C/c1ccc[nH]1)c1cc2ccccc2cc1O | 3.23 µM

Structure (SMILES) | AbsAC1 (concentration giving Tm-shift threshold 1.0)
COc1cc(NS(=O)(=O)c2ccc(NS(=O)(=O)c3ccc(C)cc3)cc2)nc(OC)n1 | 3.69 µM
COc1ccccc1CNC(=O)C[C@H]1CC[C@@H]2[C@H](COC[C@H](O)CN2C(=O)Nc2ccc(Cl)cc2)O1 | 30.5 µM
Cc1ccc(-c2n[nH]c(=S)n2/N=C/c2c(C)[nH]n(-c3ccccc3)c2=O)cc1 | 4.65 µM
O=[N+]([O-])c1cc(CS(=O)(=O)Oc2ccc(Cl)cc2)c(O)c([N+](=O)[O-])c1 | > 5 µM (inactive)
CC(=O)Nc1ccc(/C(C)=N/Nc2nc(Nc3ccccc3)nc(N3CCOCC3)n2)cc1 | 7.91 µM
Cc1noc(NS(=O)(=O)c2ccc(NC(=O)c3cccc(S(=O)(=O)N(C)c4ccccc4)c3)cc2)c1C | 4.7 µM
C[C@H]1CN([C@@H](C)CO)S(=O)(=O)c2ccc(-c3cccc(F)c3)cc2O[C@H]1CN(C)C(=O)Nc1cc(F)ccc1F | 6.67 µM
O=C(N/N=C/c1ccc(OCc2ccccc2)cc1)c1ccc(O)cc1 | 3.59 µM
N/C(=N\OCC(=O)Nc1ccc(F)c(Cl)c1)c1ccccc1 | 4.58 µM
COc1cccc(NC(=O)N(C)C[C@@H]2Oc3cc(-c4ccccc4F)ccc3S(=O)(=O)N([C@H](C)CO)C[C@@H]2C)c1 | 2.04 µM
COc1ccc(-c2ccc([C@H]3[C@@H](CO)N4CCCCN(C(=O)c5ccc6c(c5)OCO6)C[C@H]34)cc2)cc1 | 15.2 µM
O=C(Nc1ccc(S(=O)(=O)N2CCCC2)cc1)c1ccccc1 | 8.57 µM
COc1ccccc1NC(=O)N[C@@H]1CC[C@@H](CCn2cc(-c3ccccc3OC)nn2)O[C@@H]1CO | 4.76 µM
CCOc1cc(C=NNC(=O)c2cccc(S(=O)(=O)N3CCCC3)c2)ccc1O | 6.84 µM
COc1cccc(C(=O)Nc2cccc(NC(=O)c3cccs3)c2)c1 | 1.72 µM
Nc1nnc(CC(=O)N/N=C/c2cc([N+](=O)[O-])cc(Br)c2O)s1 | 4.99 µM
CCOc1ccc(NC(=O)CC2C(=O)N(c3ccc(OC)cc3)C(=S)N2Cc2ccccn2)cc1 (configuration not stated) | 3.11 µM
COc1ccc(C#Cc2ccc3c(c2)O[C@H](CN(C)S(=O)(=O)c2ccccc2F)[C@@H](C)CN([C@@H](C)CO)S3(=O)=O)cc1 | 14.7 µM
CCCOc1ccc(NC(=O)CC2C(=O)N(C)C(=S)N2Cc2ccc3c(c2)OCO3)cc1 (configuration not stated) | 3.25 µM
COC(=O)C[C@H]1CC[C@@H]2[C@@H](COc3ccc(NC(=O)Nc4ccc(C#N)cc4)cc3C(=O)N2C)O1 | 5.43 µM
CCCNC(=O)COC(=O)c1ccccc1C(=O)N(C)C1CCCCC1 | 3.78 µM
C/C=C/c1ccc2c(c1)O[C@@H](CN(C)C(=O)Nc1cc(F)ccc1F)[C@@H](C)CN([C@H](C)CO)S2(=O)=O | 20.6 µM
N#Cc1ccc(NC(=O)Nc2cccc(C#N)c2)cc1 | 4.49 µM
CCCOC(=O)c1ccc(Oc2cn[nH]c2-c2ccc(O)cc2O)cc1 | 18.6 µM
COc1cccc(NC(=O)CN(C)C(=O)c2cn(-c3ccccc3)nc2-c2cccs2)c1 | 6.16 µM
O=C(N/N=C/c1c[nH]c2ccccc12)c1cccs1 | 2.71 µM
